ChEMBL document CHEMBL1165863, “Lipophilicity of novel antitumour and analgesic active 8-aryl-2,6,7,8-tetrahydroimidazo[2,1-c][1,2,4]triazine-3,4-dione derivatives determined by reversed-phase HPLC and computational methods” (Eur J Med Chem, 2010)

Legend:
[1] = Lipophilicity, Log p by HPLC; format: physicochemical
Mus musculus = experiment: (§1) Toxicity in ip dosed mouse; format: organism-based; settings: in vivo
[2] = as §1; format: organism-based; settings: in vivo

SMILES | logP [1] | log(1/LD50) (Mus musculus) | LD50 [2] [mg/kg] | LD (Mus musculus) [mg/kg]
O=c1[nH]nc2n(c1=O)CCN2c1ccc(Cl)c(Cl)c1 | 2.63 |  |  | 
COc1ccc(N2CCn3c2n[nH]c(=O)c3=O)cc1 | 1.21 | -3.18 |  | 
O=c1[nH]nc2n(c1=O)CCN2c1ccccc1 | 1.31 | -3.15 |  | 
Cc1ccccc1N1CCn2c1n[nH]c(=O)c2=O | 1.16 |  |  | 
O=c1[nH]nc2n(c1=O)CCN2c1cccc(Cl)c1 | 2 | -3.3 | 2000 | 
COc1ccccc1N1CCn2c1n[nH]c(=O)c2=O | 0.97 | -3.04 |  | 
O=c1[nH]nc2n(c1=O)CCN2c1ccc(Cl)cc1 | 1.99 | -3.3 |  | 2000
Cc1ccc(N2CCn3c2n[nH]c(=O)c3=O)cc1 | 1.84 | -3.25 |  | 
